# Experimental data published in patent US20250092043A1, “Kinase Inhibitors and Degraders” (Incyte Corporation, priority 2023, published 2025).
# Target: T1, JAK2 (Homo sapiens, UniProt O60674, V617F)
# T1 construct: their effect on JAK2 protein degradation in SET2 cells; host or cells: SET2 cells (human essential thrombocythemia)
# Assay: Western blot quantitation of JAK2 degradation in SET2 cells
# Type: cell-based
# Conditions: 5 μM compound, 8 hours treatment, western blot densitometry vs. DMSO vehicle
# Experimental: Example E. Western Blot Analysis of JAK2 Dependent SET2 Cells Treated with Compounds of the Present Disclosure
# SET2 cells (DSMZ, catalog number ACC 608) are isolated from a person with human essential thrombocythemia and carry the JAK2 V617F mutation.
# SET2 cells were cultured in RPMI culture medium (Gibco, catalog number 11875085) supplemented with 1% penicillin-streptomycin-glutamine (Thermo Fisher Scientific, catalog number 10378016) and 20% fetal bovine serum (Gibco, catalog number 10438034). Cultured cells were maintained at 37° C., 5% CO2 in the incubator.
# Approximately 1,000,000 cells/well were added in 6-well plate containing 1.5 ml culture media with specified concentrations of compounds of the present disclosure or DMSO control. Cells were treated with concentrations of 10 uM, 5 uM, 1 uM, and 0.5 uM. Proteasome inhibitor MG-132 (Cell signaling, catalog number 2194) was added at 20 uM to an additional 10 uM compound treatment. The treatment period was 8 hours. After 8 hours, cells were collected in 1.5 mL microcentrifuge tubes. Tubes were centrifuged at 1500 rpm for 5 min. Supernatant was aspirated and samples were washed with 1 mL of cold PBS. The samples were centrifuged again at 1500 rpm for 5 min, supernatant was aspirated. The sample pellets were lysed using 150 μL of 1× lysing buffer (Cell Signaling Technologies—catalog number 9803S) supplemented with 1× Halt™ Protease and Phosphatase Inhibitor Cocktail (Thermo Fisher Scientific—catalog number 78447). Using Pierce™ BCA Protein Assay Kit (Thermo Fisher Scientific—catalog number 23225), protein concentration of the samples were quantitated. After normalizing sample concentration to approximately 20 ug/well, samples were loaded onto 4-12% Tris-glycine gels. Gels were transferred to nitrocellulose membranes using iBlot 2 Dry Blotting System and iBlot™ 2 Transfer Stacks, nitrocellulose (Thermo Fisher Scientific—catalog number IB23001). Following transfer, membranes were blocked with StartingBlock (Thermo Fisher Scientific—catalog number 37543). After 1 hour of blocking membranes, they were probed for JAK2, pSTAT5, STAT5, CRBN, and GAPDH (Cell Signaling—catalog numbers 3230, 4322, 25656, 71810, and 5174 respectively).
# Compounds of the present disclosure were screened at various concentrations to determine their effect on JAK2 protein degradation in SET2 cells, using methods as described above. DMSO was used as the vehicle control with no PROTAC® added. Co-administration of 20 μM of the proteasome inhibitor MG-132 with the PROTAC® compound at its highest concentration (i.e., 5 or 10 μM) tested was conducted to support the hypothesis that the degradation was driven by the ubiquitin-proteosome system (UPS). Degradation was evaluated by western blot densitometry quantitation using the FluorChem M instrument software to analyze the intensity of the JAK2 band signal at various concentrations of PROTAC® compound vs. the JAK2 band signal of the DMSO vehicle. It is noted that ˜82% of JAK2 exists as the V617F mutant, with the remaining 18% of JAK2 being WT. Therefore, if the V617F mutant JAK2 is selectively degraded over the WT, the maximum degradation is ˜80%. Degradation was graded as A: […]; B: ≥40% to <60% degradation; C: ≥20% to <40% degradation, D: <20% to ≥10%; E<10%. ** refers to degradation at 0.5 μM.
# T1 sequence (O60674 whole entry V617F): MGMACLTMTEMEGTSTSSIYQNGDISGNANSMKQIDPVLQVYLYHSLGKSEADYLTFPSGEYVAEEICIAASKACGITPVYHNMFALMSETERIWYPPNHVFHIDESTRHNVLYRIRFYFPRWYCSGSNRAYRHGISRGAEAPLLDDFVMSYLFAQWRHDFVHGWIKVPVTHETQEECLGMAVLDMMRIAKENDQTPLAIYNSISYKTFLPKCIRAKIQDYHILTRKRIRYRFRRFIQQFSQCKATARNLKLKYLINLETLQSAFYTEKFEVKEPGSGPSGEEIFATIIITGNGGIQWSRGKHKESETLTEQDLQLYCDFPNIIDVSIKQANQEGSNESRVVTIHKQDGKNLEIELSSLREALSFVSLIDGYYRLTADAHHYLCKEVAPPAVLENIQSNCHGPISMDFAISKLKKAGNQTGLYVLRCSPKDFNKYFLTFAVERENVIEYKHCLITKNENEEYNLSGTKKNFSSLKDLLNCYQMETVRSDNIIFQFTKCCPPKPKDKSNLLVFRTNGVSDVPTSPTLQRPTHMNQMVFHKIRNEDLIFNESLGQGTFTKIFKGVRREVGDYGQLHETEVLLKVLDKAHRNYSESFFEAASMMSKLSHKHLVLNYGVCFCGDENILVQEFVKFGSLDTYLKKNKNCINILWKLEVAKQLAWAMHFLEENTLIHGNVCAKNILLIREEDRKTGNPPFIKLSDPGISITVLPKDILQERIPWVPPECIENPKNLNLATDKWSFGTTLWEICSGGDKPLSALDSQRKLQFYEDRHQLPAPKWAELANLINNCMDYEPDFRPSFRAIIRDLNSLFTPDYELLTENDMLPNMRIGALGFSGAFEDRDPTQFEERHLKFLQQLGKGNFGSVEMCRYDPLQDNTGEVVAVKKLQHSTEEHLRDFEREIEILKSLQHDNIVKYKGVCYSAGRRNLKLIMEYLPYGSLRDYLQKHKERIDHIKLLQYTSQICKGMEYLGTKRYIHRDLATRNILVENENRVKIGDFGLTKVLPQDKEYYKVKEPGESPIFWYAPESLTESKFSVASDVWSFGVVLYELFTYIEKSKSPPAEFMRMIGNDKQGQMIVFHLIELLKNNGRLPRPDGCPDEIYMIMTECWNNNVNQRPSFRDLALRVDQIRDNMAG
row,SMILES,JAK2 % Degradation in SET2
1,"COC(=O)N[C@@H]1CC[C@@H](n2c(=O)n(C)c3cnc4[nH]c(-c5ccc(C(=O)N6CCC(C(=O)N7CCN(c8cccc9c8C(=O)N(C8CCC(=O)NC8=O)C9=O)CC7)CC6)cc5)c(-c5ccc6c(cnn6C(C)C)c5)c4c32)C1 (stereo partly drawn) [Example 37, methyl ((1R,3R)-3-(7-(4-(4-(4-(2-(2,6-dioxopiperidin-3-yl)-1,3-dioxoisoindolin-4-yl)piperazine-1-carbonyl)piperidine-1-carbonyl)phenyl)-8-(1-isopropyl-1H-indazol-5-yl)-3-methyl-2-oxo-3,6-dihydroimidazo[4,5-d]pyrrolo[2,3-b]pyridin-1(2H)-yl)cyclopentyl) carbamate]",C (C: ≥20% to <40% degradation)
2,"COC(=O)N[C@@H]1CC[C@@H](n2c(=O)n(C)c3cnc4[nH]c(-c5ccc(C(=O)N6CCN(CC7CCN(c8cccc9c8C(=O)N(C8CCC(=O)NC8=O)C9=O)CC7)CC6)cc5)c(-c5ccc6c(cnn6C(C)C)c5)c4c32)C1 (stereo partly drawn) [Example 38, methyl ((1R,3R)-3-(7-(4-(4-((1-(2-(2,6-dioxopiperidin-3-yl)-1,3-dioxoisoindolin-4-yl)piperidin-4-yl)methyl)piperazine-1-carbonyl)phenyl)-8-(1-isopropyl-1H-indazol-5-yl)-3-methyl-2-oxo-3,6-dihydroimidazo[4,5-d]pyrrolo[2,3-b]pyridin-1(2H)-yl)cyclopentyl) carbamate]",A (A: ≥600% degradation)
3,"COC(=O)N[C@@H]1CC[C@@H](n2c(=O)n(C)c3cnc4[nH]c(-c5cnn(CC(=O)N6CCC(CN7CCN(c8cccc9c8C(=O)N(C8CCC(=O)NC8=O)C9=O)CC7)CC6)c5)c(-c5ccc6c(cnn6C(C)C)c5)c4c32)C1 (stereo partly drawn) [Example 40, methyl ((1R,3R)-3-(7-(1-(2-(4-((4-(2-(2,6-dioxopiperidin-3-yl)-1,3-dioxoisoindolin-4-yl)piperazin-1-yl)methyl)piperidin-1-yl)-2-oxoethyl)-1H-pyrazol-4-yl)-8-(1-isopropyl-1H-indazol-5-yl)-3-methyl-2-oxo-3,6-dihydroimidazo[4,5-d]pyrrolo[2,3-b]pyridin-1(2H)-yl)cyclopentyl) carbamate]",C (C: ≥20% to <40% degradation)
4,"COC(=O)N[C@@H]1CC[C@@H](n2c(=O)n(C)c3cnc4[nH]c(-c5cnn(CC(=O)N6CCC(CN7CCN(c8ccc9c(c8)CN(C8CCC(=O)NC8=O)C9=O)CC7)CC6)c5)c(-c5ccc6c(cnn6C(C)C)c5)c4c32)C1 (stereo partly drawn) [Example 41, methyl ((1R,3R)-3-(7-(1-(2-(4-((4-(2-(2,6-dioxopiperidin-3-yl)-1-oxoisoindolin-5-yl)piperazin-1-yl)methyl)piperidin-1-yl)-2-oxoethyl)-1H-pyrazol-4-yl)-8-(1-isopropyl-1H-indazol-5-yl)-3-methyl-2-oxo-3,6-dihydroimidazo[4,5-d]pyrrolo[2,3-b]pyridin-1(2H)-yl)cyclopentyl) carbamate]",C (C: ≥20% to <40% degradation)
5,"COC(=O)N[C@@H]1CC[C@@H](n2c(=O)n(C)c3cnc4[nH]c(-c5ccc(CN6CCN(CC7CCN(c8cccc9c8C(=O)N(C8CCC(=O)NC8=O)C9=O)CC7)CC6)cc5)c(-c5ccc6c(cnn6C(C)C)c5)c4c32)C1 (stereo partly drawn) [Example 42, Methyl((1R,3R)-3-(7-(4-((4-((1-(2-(2,6-dioxopiperidin-3-yl)-1,3-dioxoisoindolin-4-yl)piperidin-4-yl)methyl)piperazin-1-yl)methyl)phenyl)-8-(1-isopropyl-1H-indazol-5-yl)-3-methyl-2-oxo-3,6-dihydroimidazo[4,5-d]pyrrolo[2,3-b]pyridin-1(2H)-yl)cyclopentyl)carbamate]",A (A: ≥600% degradation)
6,"COC(=O)N[C@@H]1CC[C@@H](n2c(=O)n(C)c3cnc4[nH]c(-c5ccc(CN6CCC(CN7CCN(c8ccc9c(c8)CN(C8CCC(=O)NC8=O)C9=O)CC7)CC6)cc5)c(-c5ccc6c(cnn6C(C)C)c5)c4c32)C1 (stereo partly drawn) [Example 43, Methyl((1R,3R)-3-(7-(4-((4-((4-(2-(2,6-dioxopiperidin-3-yl)-1-oxoisoindolin-5-yl)piperazin-1-yl)methyl)piperidin-1-yl)methyl)phenyl)-8-(1-isopropyl-1H-indazol-5-yl)-3-methyl-2-oxo-3,6-dihydroimidazo[4,5-d]pyrrolo[2,3-b]pyridin-1(2H)-yl)cyclopentyl)carbamate]",A (A: ≥600% degradation)
7,"COC(=O)N[C@@H]1CC[C@@H](n2c(=O)n(C)c3cnc4[nH]c(-c5ccc(CN6CCC(CN7CCN(c8cccc9c8C(=O)N(C8CCC(=O)NC8=O)C9=O)CC7)CC6)cc5)c(-c5ccc6c(cnn6C(C)C)c5)c4c32)C1 (stereo partly drawn) [Example 44, Methyl((1R,3R)-3-(7-(4-((4-((4-(2-(2,6-dioxopiperidin-3-yl)-1,3-dioxoisoindolin-4-yl)piperazin-1-yl)methyl)piperidin-1-yl)methyl)phenyl)-8-(1-isopropyl-1H-indazol-5-yl)-3-methyl-2-oxo-3,6-dihydroimidazo[4,5-d]pyrrolo[2,3-b]pyridin-1(2H)-yl)cyclopentyl)carbamate]",C (C: ≥20% to <40% degradation)

# Same assay, conditions: 10 μM compound, 8 hours treatment, western blot densitometry vs. DMSO vehicle
row,SMILES,JAK2 % Degradation in SET2
1,"COC(=O)N[C@@H]1CC[C@@H](n2c(=O)n(C)c3cnc4[nH]c(-c5ccc(C(=O)N6CCC(CN7CCN(c8ccc9c(c8)CN(C8CCC(=O)NC8=O)C9=O)CC7)CC6)cc5)c(-c5ccc6c(cnn6C(C)C)c5)c4c32)C1 (stereo partly drawn) [Example 35, methyl ((1R,3R)-3-(7-(4-(4-((4-(2-(2,6-dioxopiperidin-3-yl)-1-oxoisoindolin-5-yl)piperazin-1-yl)methyl)piperidine-1-carbonyl)phenyl)-8-(1-isopropyl-1H-indazol-5-yl)-3-methyl-2-oxo-3,6-dihydroimidazo[4,5-d]pyrrolo[2,3-b]pyridin-1(2H)-yl)cyclopentyl) carbamate]",A (A: ≥600% degradation)
2,"COC(=O)N[C@@H]1CC[C@@H](n2c(=O)n(C)c3cnc4[nH]c(-c5ccc(C(=O)N6CCC(CN7CCN(c8ccc9c(c8)CN(C8CCC(=O)NC8=O)C9=O)CC7)CC6)c(F)c5)c(-c5ccc6c(cnn6C(C)C)c5)c4c32)C1 (stereo partly drawn) [Example 36, methyl ((1R,3R)-3-(7-(4-(4-((4-(2-(2,6-dioxopiperidin-3-yl)-1-oxoisoindolin-5-yl)piperazin-1-yl)methyl)piperidine-1-carbonyl)-3-fluorophenyl)-8-(1-isopropyl-1H-indazol-5-yl)-3-methyl-2-oxo-3,6-dihydroimidazo[4,5-d]pyrrolo[2,3-b]pyridin-1(2H)-yl)cyclopentyl) carbamate]",A (A: ≥600% degradation)
3,"CN[C@@H](C)C(=O)N[C@H](C(=O)N1C[C@@H](NC(=O)CC2CCN(C(=O)c3ccc(-c4[nH]c5ncc6c(c5c4-c4ccc5c(cnn5C(C)C)c4)n([C@@H]4CC[C@@H](NC(=O)OC)C4)c(=O)n6C)cc3F)CC2)C[C@H]1C(=O)N[C@@H]1CCCc2ccccc21)C1CCCCC1 [Example 46, Methyl((1R,3R)-3-(7-(4-(4-(2-(((3S,5S)-1-((S)-2-cyclohexyl-2-((S)-2-(methylamino)propanamido)acetyl)-5-(((R)-1,2,3,4-tetrahydronaphthalen-1-yl)carbamoyl)pyrrolidin-3-yl)amino)-2-oxoethyl)piperidine-1-carbonyl)-3-fluorophenyl)-8-(1-isopropyl-1H-indazol-5-yl)-3-methyl-2-oxo-3,6-dihydroimidazo[4,5-d]pyrrolo[2,3-b]pyridin-1(2H)-yl)cyclopentyl)carbamate]",D (D: <20% to ≥10%)
